These are literature values, as cited in patent US10729708B2, “Stabilized glycopeptide antibiotic formulations” (XELLIA PHARMACEUTICALS APS, priority 2016, dated 2020).

Holding throughout (settings): QC strain, CLSI protocol
Series [1] deals with Staphylococcus aureus ATCC 29213.
Series [2] relates to Streptococcus pnemoniae ATCC 49619.
Series [3] concerns Enterococcus faecalis ATCC 29212.

Take `CN[C@H](CC(C)C)C(=O)NC1C(=O)N[C@@H](CC(N)=O)C(=O)N[C@H]2C(=O)N[C@H]3C(=O)NC(C(=O)N[C@@H](C(=O)O)c4cc(O)cc(O)c4-c4cc3ccc4O)[C@H](O)c3ccc(c(Cl)c3)Oc3cc2cc(c3O[C@@H]2OC(CO)[C@@H](O)C(O)C2O[C@H]2CC(C)(N)[C@H](O)C(C)O2)Oc2ccc(cc2Cl)C1O.Cl` (stereo partly drawn) [Vancomycin]: the figures for the “Referent MIC ranges” value in series [1], in series [2] and in series [3] were 0.5 to 2 µg/mL, 0.125 to 0.5 µg/mL and 1 to 4 µg/mL, respectively.
